According to US4313943A, “7-Chloro-2,3-dihydro-5-phenyl-1-propargyl-1H-1,4-benzodiazepine-2-one, and a pharmaceutical composition thereof” (priority 1972, dated 1982):
Several values for one entry are separate records, joined by “and”; a condition that tells them apart may be missing. Identical values can stand only once.

Experiments:
[1] = Comparative tranquilizing effects: four plates test; format: in vivo
Description: The method utilized was the 4 plates test of J. R. Boissier, et al (European J. of Pharm. 1968, Vol. 4, pages 145-151).

[2] = Postural tonus in restrained animals; format: in vivo
Description: The final observations were concerned with the influence of the test compounds on postural tonus. Evaluationg postural tonus in the animals kept in restraint cages was somewhat difficult. It was possible to judge this aspect by pulling the hind quarters of the animals out of the cage and observing whether the animals was capable of returning spontaneously to its position inside the cage, which control animals were able to do immediately.

[3] = Motor coordination in rats (rotarod, Dunham and Miya 1957)
[4] = Effect on muscular relaxation in mice (30° inclined screen, Randall); format: in vivo
Procedure: The method utilized was the procedure described by Randall (1961) using a 30° inclined screen.

[5] = Conditioned emotional response (CER), tone paired with foot shock; format: in vivo
Procedure: Conditioned emotional response (CER) in test animals was conventionally determined by a tone paired with a foot shock which was presented to hungry animals trained to press a lever for intermittent food reinforcement. After a few such pairings, the presence of the tone alone was sufficient to disrupt the lever pressing behavior. CER is considered a model of behavior anxiety in animals. […] Thus, a 1.25 mg/kg os of compounds 1 and 4 respectively produced about a 350 and 630% increase in CER while a 5 mg/kg os of compounds 1 and 4 respectively produced about 920 and 1600% increase.

[6] = Rotarod test, equilibrium (Table 6); format: in vivo
[7] = Acute toxicity comparison (LD50, Litchfield and Wilcoxan); conditions: in vivo; Table 11; oral; species not given
Procedure: Toxicity in test animals to the test compounds in terms of LD50 after oral and intraperitoneal administration was determined according to the procedure of Litchfield and Wilcoxan (1949) and the hypnotic effect on test animals was determined in accordance with the method of Janssen (1959).

[8] = Potentiation of narcotic effect of Veronal; conditions: in vivo
[9] = Conditioned avoidance response (shuttle box); format: in vivo; conditions: for Number of Conditioned Avoidance Responses: CMC 1% 16.7 ± 0.3
Procedure: Conditioned avoidance response by trained animals in a conventional shuttle box procedure was determined after oral administration of Compounds 1 and 4.

[10] = Convulsions induced by pentamethylenetetrazol in rats; format: in vivo
Procedure: The method utilized was according to the method published by Everett and Richards (1944) and Banziger (1965). The pentamethylenetetrazol was given subcutaneously (125 mg/kg) and the test compounds were given orally suspended in a 1% carboxymethyl cellulose solution.

dorsal hippocampus = assay: Hippocampal after-discharge (stimulation of dorsal hippocampus); format: in vivo; conditions: 7.5 mg/kg intragastric; for Duration of Hippocampal After-Discharge: individual animals
Procedure: The test animals for this study were also prepared according to the technique described by Monnier and Gangloff (infra B, page 30) and the animals were kept in restraint cages in a relatively soundproof room.
The activity of test compounds 1 and 4 was assessed in identical groups of test animals for each compound, with identical numbers of animals for hippocampal after-discharges and for amygdaloid after-discharges. A dose of 7.5 mg/kg of each test compound was adminstered by the intragastric route. In each animal, after-discharges were triggered every 45 minutes after the administration of a test compound.
The stimulation consisted of a series of waves with a duration of 3 m sec., delivered at a frequency of 40 c/sec., with 5 seconds as the total duration of the stimulation. The shocks were delivered by a Neurovar neurostimulator (Alvar Electronic), coupled to a CRC cathode oscilloscope (type OC 343). Cerebral electric activity was recorded by REEGA MINI HUIT electroencephalograph (Alvar Electronic).

[11] = Emotional conditioning response (CER) in rats (Brady, Skinner box); format: in vivo
Description: The method utilized that was published by Brady (1956) using a Skinner Box and a combination of a sound, a light and an electrical shock to produce anxiety in the test animals.
The more an animal is anxious, the less important is the score. When a test compound is a powerful anxiolytic, the value of the score is proportional to the dosage.

[12] = ECoG and sedation in test animals free to move; format: in vivo
Procedure: Some test animals were kept in restraint cases placed in a relatively soundproof room and some were left free to move in metal cases measuring 40×50×30 cm, which were also kept in a relatively quiet environment.
In the test animals which were free to move, the first signs of sedation produced by the intragastric administration of 7.5 mg/kg of compounds 1 and 4 appeared, respectively, at 16 minutes (compound 1) and at 8 minutes (compound 4). […] The duration of the effect was, however, shorter, not exceeding 3 hours under these conditions in contrast to the 5 hour minimum for restricted animals.

[13] = 7.5 mg/kg intragastric, animals free to move

Structure (SMILES): C#CCN1C(=O)CN=C(c2ccccc2Cl)c2cc(Cl)ccc21 [Compound 4, 7-chloro-2,3-dihydro-5-(2-chlorophenyl)-1-propargyl-1,H-1,4-benzodiazepine-2-one]
- ED50 ([1]; 1 h, 60 min. after administration, doses between 0.5 and 4 mg/kg, confidence limits for P = 0.05): 5.5 mg/kg
- Duration of effect ([1]; compounds 1 and 4 compared): comparable
- usability of 4 plates test ([1]; over 3 mg/kg): caused motor activity to be so reduced that 4 plates test
- animals with no attempt to resume previous posture ([2]; 30 mg/kg, at 21/2 hours): one animal out of every three
- reduction in postural tonus ([2]; more pronounced effect of compound 4 especially at 30 mg/kg): slightly more pronounced effect
- % Uncoordinated Animals ([3]; 12 mg/kg/os): 37.5%
- % Uncoordinated Animals ([3]; 17 mg/kg/os): 50%
- % Uncoordinated Animals ([3]; 24 mg/kg/os): 87.5%
- Potency Against Comp. 1 ([3]; C.L. (3.09. 6.79), X^2 parallelism 0.005): 4.58
- TD50 ([3]; rat, rotarod, po): 14.9 mg/kg
- % Relaxed Animals ([4]; 2 mg/kg/os): 40%
- % Relaxed Animals ([4]; 8 mg/kg/os): 60%
- % Relaxed Animals ([4]; 32 mg/kg/os): 80%
- Potency Against Comp. 1 ([4]; C.L. (1.67-18.80), X^2 parallelism 2.03): 5.60
- ED50 ([4]; Mus musculus, po, muscular relaxation, read-out: ED50 (and C.L.)): 3.93 mg/kg
- increase in CER ([5]; 1.25 mg/kg os): ~630%
- increase in CER ([5]; 5 mg/kg os): ~1600%
- Rotarod Test % of Animals With Unchanged Equilibrium ([6]; 1 mg/kg): 50.0%
- Rotarod Test % of Animals With Unchanged Equilibrium ([6]; 3 mg/kg): 8.3%
- changes in equilibrium / motor coordination ([6]; in vivo): degradation of motor coordination
- LD50 [7]: > 5000 mg/kg
- narcotic effect of a minimal dose of Veronal [8]: potentiate the narcotic effect of a minimal dose of Veronal
- % Decrease (conditioned avoidance responses) ([9]; 5 mg/kg oral): -44%
- Number of Conditioned Avoidance Responses ([9]; 5 mg/kg oral): 9.2 ± 1.4
- % Decrease (conditioned avoidance responses) ([9]; 10 mg/kg oral): -85%
- Number of Conditioned Avoidance Responses ([9]; 10 mg/kg oral): 2.5 ± 1.5
- % Protected Animals ([10]; 6 mg/kg/os, pentamethylenetetrazol 125 mg/kg s.c.): 20%
- % Protected Animals ([10]; 8.5 mg/kg/os, pentamethylenetetrazol 125 mg/kg s.c.): 60%
- % Protected Animals ([10]; 12 mg/kg/os, pentamethylenetetrazol 125 mg/kg s.c.): 70%
- ED50 ([10]; Rattus norvegicus, oral, protection against pentamethylenetetrazol, read-out: ED50 (and C.L.) (converted)): 8.5 mg/kg
- % Protected Animals ([10]; Time 90 min.): 37%
- % Protected Animals ([10]; Time 120 min.): 18%
- % Protected Animals ([10]; Time 180 min.): 0%
- % Protected Animals ([10]; Time 240 min.): 0%
- effect on duration of hippocampal after-discharge (dorsal hippocampus): no apparent effect on the duration of the paroxysm
- Duration of Hippocampal After-Discharge (dorsal hippocampus; 45 Mins.): 10 s and 20 s and 18 s and 14 s and 12 s
- Duration of Hippocampal After-Discharge (dorsal hippocampus; 90 Mins.): 7 s and 16 s and 20 s and 15 s and 11 s
- Duration of Hippocampal After-Discharge (dorsal hippocampus; 135 Mins.): 6 s and 15 s and 17.5 s and 13.5 s and 14 s
- Duration of Hippocampal After-Discharge (dorsal hippocampus; 180 Mins.): 8 s and 10.5 s and 18 s and 15 s
- Duration of Hippocampal After-Discharge (dorsal hippocampus; 225 Mins.): 9 s and 19 s and 18.5 s and 13 s and 10 s
- Duration of Hippocampal After-Discharge (dorsal hippocampus; 270 Mins.): 10 s and 22 s and 27 s and 13 s and 16 s
- Number of Responses, After - CER ([11]; 1.25 mg/kg/os): 86.43 ± 22.13
- Number of Responses, Before - CER ([11]; 1.25 mg/kg/os): 81.28 ± 16.17
- Number of Responses, CER ([11]; 1.25 mg/kg/os): 26.25 ± 4.57
- Number of Responses, After - CER ([11]; 2.5 mg/kg/os): 79.75 ± 15.24
- Number of Responses, Before - CER ([11]; 2.5 mg/kg/os): 66.75 ± 11.80
- Number of Responses, CER ([11]; 2.5 mg/kg/os): 31.12 ± 6.54
- Number of Responses, After - CER ([11]; 5 mg/kg/os): 79.00 ± 20.03
- Number of Responses, Before - CER ([11]; 5 mg/kg/os): 65.00 ± 14.89
- Number of Responses, CER ([11]; 5 mg/kg/os): 38.37 ± 8.76
- duration of the ECoG effect [12, 13]: ≤ 3 h
- first signs of sedation [12, 13]: 8 min
- duration of ECoG effects (three compounds compared) ([12]; unrestricted animals, compound 3 at 10 mg/kg): about 31/2
